Bounds are passed on as bounds.

The target of the first test is T1, purified human IDO protein (Homo sapiens, UniProt P14902).
T1 construct: 2 extra amino acids (linker from the BglII cloning site of pQE70); made in house; host or cells: E. coli M15(pREP4) with plasmid pQE70-hIDO
T1 sequence (P14902 whole entry P110S/E119G): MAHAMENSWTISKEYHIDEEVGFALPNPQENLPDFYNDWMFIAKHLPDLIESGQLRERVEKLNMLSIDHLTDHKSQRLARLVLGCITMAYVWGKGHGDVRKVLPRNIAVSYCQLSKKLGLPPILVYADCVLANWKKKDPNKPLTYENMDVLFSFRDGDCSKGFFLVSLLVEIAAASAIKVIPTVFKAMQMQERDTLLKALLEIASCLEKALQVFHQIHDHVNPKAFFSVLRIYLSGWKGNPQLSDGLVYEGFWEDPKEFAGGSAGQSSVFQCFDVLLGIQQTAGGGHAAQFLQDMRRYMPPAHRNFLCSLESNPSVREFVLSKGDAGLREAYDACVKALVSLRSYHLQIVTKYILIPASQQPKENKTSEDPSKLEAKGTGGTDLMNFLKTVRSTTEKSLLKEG
The test can be described thus: Enzymatic IDO assay (kynurenine production, absorbance at 480 nm). It is filed as biochemical. The following applies: hIDO IC50, recombinant human IDO; values reported in ranges. The method, then:
The inhibitors were initially diluted in DMSO at 100 mM and were diluted in potassium phosphate 50 mM, added to the reaction mixture at final concentrations raging from 1 mM to 5 nM and preincubated with the enzyme for 5 min at 25° C. The reaction was started by addition of L-tryptophan to 200 μM and incubated 15 min at 37° C. The reaction was stopped by addition of 0.5 vol of 30% trichloroacetic acid and incubated 30 min at 60° C. to hydrolyze N-formylkynurenine to kynurenine. The reaction was centrifuged at 3400 g for 5 min to remove precipitated protein and the supernatant was reacted with 2% (w/v) of p-dimethylaminobenzaldehyde in acetic acid. The reaction was incubated 10 min at 25° C. and read at 480 nm in a spectrophotometer. […] Nonlinear regressions and determination of the IC50 values were performed using the GraphPad Prism 4 software.
For `O=C1NCCN1C(=O)Oc1ccc(Cl)cc1-c1c[nH]cn1` [compound 1147, 4-chloro-2-(1H-imidazol-4-yl)phenyl 2-oxoimidazolidine-1-carboxylate], the IC50 lay within 1 to 10 µM.

The same test, now with this note: recombinant human IDO; values reported in ranges; read-out: hIDO IC50.
Turning to `CC(C)(C)CC(=O)N1CCC(CCOc2ccccc2-c2c[nH]cn2)CC1` [compound 1143, 1-(4-(2-(2-(1H-imidazol-4-yl)phenoxy)ethyl)piperidin-1-yl)-3,3-dimethylbutan-1-one], the IC50 lay in the range of 10 to 100 µM.

`Oc1cccc(OCCc2ccc(Cl)cc2)c1-c1cnc[nH]1` [compound 1148, 3-(4-chlorophenethoxy)-2-(1H-imidazol-5-yl) phenol]: the IC50 lay in the range of 1 to 10 µM.

For `CC(C)(C)COC(=O)N1CCC(CCOc2ccccc2-c2c[nH]cn2)CC1` [compound 1149, neopentyl 4-(2-(2-(1H-imidazol-4-yl)phenoxy)ethyl)piperidine-1-carboxylate], the 50% inhibitory concentration (IC50) was 10 to 100 µM.

Regarding `O=C(Nc1ccc(CCOc2ccccc2-c2c[nH]cn2)cc1)c1cccs1` [compound 1150, N-(4-(2-(2-(1H-imidazol-4-yl)phenoxy)ethyl)phenyl)thiophene-2-carboxamide], the IC50 lay within 1 to 10 µM.

For `O=S(=O)(Cc1ccccc1)Nc1ccc(CCOc2ccccc2-c2c[nH]cn2)cc1` [compound 1151, N-(4-(2-(2-(1H-imidazol-4-yl)phenoxy)ethyl)phenyl)-1-phenylmethanesulfonamide], the IC50 fell in the range of 1 to 10 µM.

With `O=C(Nc1ccccc1)Nc1ccc(CCOc2ccccc2-c2cnc[nH]2)cc1` [compound 1152, 1-(4-(2-(2-(1H-imidazol-4-yl)phenoxy)ethyl)phenyl)-3-phenylurea], the IC50 was less than 1 µM.

Turning to `O=C(Cc1cnccn1)Nc1ccc(CCOc2ccccc2-c2c[nH]cn2)cc1` [compound 1153, N-(4-(2-(2-(1H-imidazol-4-yl)phenoxy)ethyl)phenyl)-2-(pyrazin-2-yl)acetamide], the IC50 fell in the range of 10 to 100 µM.

For the compound `O=C(Cc1cccs1)Nc1ccc(CCOc2ccccc2-c2c[nH]cn2)cc1` [compound 1154, N-(4-(2-(2-(1H-imidazol-4-yl)phenoxy)ethyl)phenyl)-2-(thiophen-2-yl)acetamide], the IC50 was in the range of 1 to 10 µM.

As for `O=C(Cc1cnccn1)Nc1ccc(CCOc2ccccc2-c2c[nH]cn2)cc1` [compound 1156, N-(4-(2-(2-(1H-imidazol-4-yl)phenoxy)ethyl)phenyl)-2-(pyrazin-2-yl)acetamide], the IC50 lay in the range of 1 to 10 µM.

`CC(=O)Nc1ccc(CCOc2ccccc2-c2c[nH]cn2)c(Cl)c1` [compound 1159, N-(4-(2-(2-(1H-imidazol-4-yl)phenoxy)ethyl)-3-chlorophenyl)acetamide]: the IC50 was 1 to 10 µM.

As to `Oc1cccc(OCCc2cccc(Cl)c2)c1-c1cnc[nH]1` [compound 1160, 3-(3-chlorophenethoxy)-2-(1H-imidazol-5-yl) phenol], the IC50 is 1 to 10 µM.

In the case of `O=C(c1cccs1)N1CCC(CCOc2ccccc2-c2c[nH]cn2)CC1` [compound 1165, (4-(2-(2-(1H-imidazol-4-yl)phenoxy)ethyl)piperidin-1-yl)(thiophen-2-yl)methanone], the half-inhibitory concentration (IC50) fell in the range of 1 to 10 µM.

On to `Oc1ccc(Cl)c(OCCC2CCCCC2)c1-c1cnc[nH]1` [compound 1172, 4-chloro-3-(2-cyclohexylethoxy)-2-(1H-imidazol-5-yl)phenol], for which the IC50 fell in the range of 1 to 10 µM.

Take `O=C(Cc1cccs1)N1CCC(CCOc2ccccc2-c2c[nH]cn2)CC1` [compound 1176, 1-(4-(2-(2-(1H-imidazol-4-yl)phenoxy)ethyl)piperidin-1-yl)-2-(thiophen-2-yl)ethanone]: the IC50 lay within 1 to 10 µM.

Consider `Clc1cccc(-c2cnc[nH]2)c1OCCC1CCCCC1` [compound 1177, 5-(3-chloro-2-(2-cyclohexylethoxy)phenyl)-1H-imidazole], for which the IC50 was in the range of 1 to 10 µM.

Turning to `CN(C)c1ccc(CCOc2ccccc2-c2c[nH]cn2)cc1` [compound 1181, 4-(2-(2-(1H-imidazol-4-yl)phenoxy)ethyl)-N,N-dimethylaniline], the IC50 fell in the range of 10 to 100 µM.

Regarding `Oc1cccc(OCCC2CC=CCC2)c1-c1cnc[nH]1` (centres unmarked) [compound 1182, 3-(2-(cyclohex-3-en-1-yl)ethoxy)-2-(1H-imidazol-5-yl)phenol], the IC50 was in the range of 1 to 10 µM.

For the compound `O=C(Cc1ccccc1)N1CCC(CCOc2ccccc2-c2c[nH]cn2)CC1` [compound 1186, 1-(4-(2-(2-(1H-imidazol-4-yl)phenoxy)ethyl)piperidin-1-yl)-2-phenylethanone], the IC50 fell in the range of 1 to 10 µM.

For `C1=CCC(CCOc2ccccc2-c2c[nH]cn2)CC1` (centres unmarked) [compound 1191, 4-(2-(2-(cyclohex-3-en-1-yl)ethoxy)phenyl)-1H-imidazole], the IC50 lay within 1 to 10 µM.

Take `O=C(Nc1ccc(CCOc2ccccc2-c2c[nH]cn2)cc1)Nc1ccccc1[N+](=O)[O-]` [compound 1192, 1-(4-(2-(2-(1H-imidazol-4-yl)phenoxy)ethyl)phenyl)-3-(2-nitrophenyl)urea]: the IC50 was less than 1 µM.

In the case of `c1csc(CCOc2ccccc2-c2c[nH]cn2)c1` [compound 1198, 4-(2-(2-(thiophen-2-yl)ethoxy)phenyl)-1H-imidazole], the 50% inhibitory concentration (IC50) was 10 to 100 µM.

For `O=C(CC1CCCO1)Nc1ccc(CCOc2ccccc2-c2c[nH]cn2)cc1` (centres unmarked) [compound 1199, N-(4-(2-(2-(1H-imidazol-4-yl)phenoxy)ethyl)phenyl)-2-(tetrahydrofuran-2-yl)acetamide], the IC50 lay within 1 to 10 µM.

In the case of `c1csc(-c2ccc(CCOc3ccccc3-c3c[nH]cn3)cc2)c1` [compound 1200, 4-(2-(4-(thiophen-2-yl)phenethoxy)phenyl)-1H-imidazole], the IC50 is 10 to 100 µM.

As to `c1ccc(-c2c[nH]cn2)c(OCCc2ccc(-c3ccsc3)cc2)c1` [compound 1201, 4-(2-(4-(thiophen-3-yl)phenethoxy)phenyl)-1H-imidazole], the IC50 was 10 to 100 µM.

With `c1ccc(-c2c[nH]cn2)c(OCCc2csc3ccccc23)c1` [compound 1202, 4-(2-(2-(benzo[b]thiophen-3-yl)ethoxy)phenyl)-1H-imidazole], the IC50 was in the range of 10 to 100 µM.

Consider `c1ccc(-c2c[nH]cn2)c(OCCc2ccsc2)c1` [compound 1203, 4-(2-(2-(thiophen-3-yl)ethoxy)phenyl)-1H-imidazole], for which the IC50 is 10 to 100 µM.

`O=C(Nc1ccc(CCOc2ccccc2-c2c[nH]cn2)cc1)c1ccc[nH]c1=O` [compound 1204, N-(4-(2-(2-(1H-imidazol-4-yl)phenoxy)ethyl)phenyl)-2-oxo-1,2-dihydropyridine-3-carboxamide]: the IC50 was 1 to 10 µM.

On to `CC(=O)NCc1ccccc1-c1c[nH]cn1` [compound 1207, N-(2-(1H-imidazol-4-yl)benzyl)acetamide], for which the IC50 was greater than 100 µM.

`O=C(CC1CCOCC1)Nc1ccc(CCOc2ccccc2-c2c[nH]cn2)cc1` [compound 1211, N-(4-(2-(2-(1H-imidazol-4-yl)phenoxy)ethyl)phenyl)-2-(tetrahydro-2H-pyran-4-yl)acetamide]: the IC50 was 1 to 10 µM.

Take `CN1CCN(CC(=O)Nc2ccc(CCOc3ccccc3-c3c[nH]cn3)cc2)CC1` [compound 1212, N-(4-(2-(2-(1H-imidazol-4-yl)phenoxy)ethyl)phenyl)-2-(4-methylpiperazin-1-yl)acetamide]: the 50% inhibitory concentration (IC50) lay in the range of 10 to 100 µM.

With `c1ccc(-c2c[nH]cn2)c(OCCC2CCCO2)c1` (centres unmarked) [compound 1213, 4-(2-(2-(tetrahydrofuran-2-yl)ethoxy)phenyl)-1H-imidazole], the IC50 is 10 to 100 µM.

On to `O=C(CN1CCOCC1)Nc1ccc(CCOc2ccccc2-c2c[nH]cn2)cc1` [compound 1214, N-(4-(2-(2-(1H-imidazol-4-yl)phenoxy)ethyl)phenyl)-2-morpholinoacetamide], for which the IC50 lay within 1 to 10 µM.

In the case of `NC1CCCCC1NC(=O)Nc1ccc(CCOc2ccccc2-c2c[nH]cn2)cc1` (centres unmarked) [compound 1216, 1-(4-(2-(2-(1H-imidazol-4-yl)phenoxy)ethyl)phenyl)-3-(2-aminocyclohexyl)urea], the IC50 was 1 to 10 µM.

For the compound `O=C(Cn1ccnc1)Nc1ccc(CCOc2ccccc2-c2c[nH]cn2)cc1` [compound 1217, N-(4-(2-(2-(1H-imidazol-4-yl)phenoxy)ethyl)phenyl)-2-(1H-imidazol-1-yl)acetamide], the IC50 was in the range of 1 to 10 µM.

In the case of `Clc1ccc(CCOc2ccccc2-c2c[nH]cn2)cn1` [compound 1218, 5-(2-(2-(1H-imidazol-4-yl)phenoxy)ethyl)-2-chloropyridine], the IC50 is 10 to 100 µM.

For the compound `O=C(CN1CCCCCC1)Nc1ccc(CCOc2ccccc2-c2c[nH]cn2)cc1` [compound 1219, N-(4-(2-(2-(1H-imidazol-4-yl)phenoxy)ethyl)phenyl)-2-(azepan-1-yl)acetamide], the IC50 is 10 to 100 µM.

Turning to `Oc1cc(Cl)cc(-c2cnc[nH]2)c1O` [compound 1221, 5-chloro-3-(1H-imidazol-5-yl)benzene-1,2-diol], the half-inhibitory concentration (IC50) was in the range of 1 to 10 µM.

With `c1ccc(Nc2nc3ccc(CCOc4ccccc4-c4c[nH]cn4)cc3o2)cc1` [compound 1222, 6-(2-(2-(1H-imidazol-4-yl)phenoxy)ethyl)-N-phenylbenzo[d]oxazol-2-amine], the IC50 lay within 1 to 10 µM.

On to `c1ccc(-c2c[nH]cn2)c(OCCc2ccc(N3CCCCC3)cc2)c1` [compound 1223, 1-(4-(2-(2-(1H-imidazol-4-yl)phenoxy)ethyl)phenyl)piperidine], for which the IC50 fell in the range of 10 to 100 µM.

Turning to `O=C(Nc1ccccc1)Nc1ccc(CCOc2ccccc2-c2c[nH]cn2)cn1` [compound 1224, 1-(5-(2-(2-(1H-imidazol-4-yl)phenoxy)ethyl)pyridin-2-yl)-3-phenylurea], the IC50 was 1 to 10 µM.

Broadly, the IC50 is the concentration needed to halve the response being measured.

The values are drawn from patent publication US8722720B2, “Imidazole derivatives as IDO inhibitors” (NewLink Genetics Corporation, priority 2010, dated 2014).
